Data as given in article PMC103669 (BMC Pharmacology, 2002).

Key:
[1] = molecular target: T1, opossum alpha-2C adrenergic receptor (Didelphis virginiana, UniProt P35405); experiment: [3H]rauwolscine saturation binding, CHO membranes, filtration
T1 sequence (P35405 1-469): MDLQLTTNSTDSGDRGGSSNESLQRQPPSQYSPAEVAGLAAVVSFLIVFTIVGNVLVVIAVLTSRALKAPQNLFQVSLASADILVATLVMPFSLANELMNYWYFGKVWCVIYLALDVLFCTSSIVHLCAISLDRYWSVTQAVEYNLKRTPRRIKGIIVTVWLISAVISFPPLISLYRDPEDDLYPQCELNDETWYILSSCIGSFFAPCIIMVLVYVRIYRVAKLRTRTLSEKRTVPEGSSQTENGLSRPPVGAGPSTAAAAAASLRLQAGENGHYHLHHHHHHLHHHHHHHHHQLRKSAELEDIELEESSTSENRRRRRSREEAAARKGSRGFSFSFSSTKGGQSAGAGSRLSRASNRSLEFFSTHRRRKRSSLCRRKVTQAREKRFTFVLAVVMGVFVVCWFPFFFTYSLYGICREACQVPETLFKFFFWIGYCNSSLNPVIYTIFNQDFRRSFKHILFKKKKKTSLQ

[2] = molecular target: opossum alpha-2C adrenergic receptor (Didelphis virginiana, UniProt P35405, S312A/T311V); experiment: biochemical
Chain of opossum alpha-2C adrenergic receptor (Didelphis virginiana, UniProt P35405, S312A/T311V) (P35405 whole entry T311V/S312A): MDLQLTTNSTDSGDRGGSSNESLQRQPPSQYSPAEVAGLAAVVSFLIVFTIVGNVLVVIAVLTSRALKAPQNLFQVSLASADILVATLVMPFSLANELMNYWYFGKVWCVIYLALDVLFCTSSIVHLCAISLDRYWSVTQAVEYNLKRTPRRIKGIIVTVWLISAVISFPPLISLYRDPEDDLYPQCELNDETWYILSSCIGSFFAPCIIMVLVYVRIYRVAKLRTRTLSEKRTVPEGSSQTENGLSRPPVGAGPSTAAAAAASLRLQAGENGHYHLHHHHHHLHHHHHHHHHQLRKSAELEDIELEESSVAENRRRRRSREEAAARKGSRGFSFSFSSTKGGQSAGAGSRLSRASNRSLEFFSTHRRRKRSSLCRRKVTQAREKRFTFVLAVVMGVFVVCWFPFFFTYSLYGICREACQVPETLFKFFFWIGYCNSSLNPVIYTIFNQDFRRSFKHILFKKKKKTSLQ

[3] = molecular target: T2, opossum alpha-2C adrenergic receptor (Didelphis virginiana, UniProt P35405, S309A/S310A/S312A/T311V); experiment: biochemical
T2 sequence (P35405 whole entry S309A/S310A/T311V/S312A): as the sequence (P35405 whole entry T311V/S312A) above, with S309A, S310A counted along it

[4] = molecular target: T2, opossum alpha-2C adrenergic receptor; experiment: biochemical; remark: listed apart in the source

Structure (SMILES) | Kd [1] | Kd [2] | Kd [3] | Ki [4]
COC(=O)[C@H]1[C@H]2C[C@H]3c4[nH]c5ccccc5c4CCN3C[C@H]2CC[C@@H]1O [[^3H]rauwolscine] | 113 ± 8 pM | 105 ± 5 pM | 118 ± 12 pM | –
NC[C@H](O)c1ccc(O)c(O)c1 [norepinephrine] | – | – | – | 71000 ± 5000 pM
